Here are results for 17 compounds from PubChem BioAssay (NCI).

What all share (assay): DTP human tumour cell line panel, 48 h
For assay [1], the system named is CAKI-1 renal.
Assay [2] has as its system HL-60(TB) leukemia.
Assay [3] concerns NCI/ADR-RES ovarian.
Assay [4] relates to OVCAR-5 ovarian.
Assay [5] relates to SK-MEL-5 melanoma.
The test system of assay [6] is SNB-75 CNS.
The test system of assay [7] is SW-620 colon.
Assay [8] has as its system TK-10 renal.
The subject of assay [9] is U251 CNS.
Assay [10] has as its system UACC-257 melanoma.

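The compound was tested at five concentrations on cells cultured in 96-well plates, with a 48-hour exposure period. GI50 = concentration required for 50% inhibition of growth. TGI: concentration producing complete growth inhibition.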 Some results are limits rather than exact numbers.

Turning to `O=C(Nc1ccc(-n2cc(-c3ccncc3)c(-c3ccc(O)c(Cl)c3)n2)cc1)Nc1ccc(Cl)c(C(F)(F)F)c1`, the GI50 is 3.17 µM in assay [1]; 2.54 µM in [2]; 4.1 µM in [3]; 5.29 µM in assay [4]; 2.87 µM in assay [5]; 2.59 µM in assay [6]. Besides, the GI50 in [7] is 4.55 µM; in assay [8], 2.71 µM; in [9], 2.53 µM; in assay [10] it was 7.42 µM. Besides, the total growth inhibition concentration (TGI) in [1] is 19.8 µM; in assay [2], 6.27 µM; in [3] it was 52.7 µM; in assay [4] it was 19.1 µM; in assay [5] it was 10.7 µM; in assay [6] it was 14.3 µM. Further, the concentration for total growth inhibition (TGI) in assay [7] amounted to 20 µM; in assay [8], 9.78 µM; in assay [9] it was 10.1 µM; in [10], 30.8 µM.
In the case of `C/C(=N\NC(=S)NCCCCNC(=S)N/N=C(\C)c1ccccn1)c1ccccc1`, the total growth inhibition concentration (TGI) in assay [1] is more than 100 µM; in [3] it was 3.86 µM; in assay [4] it was more than 85.6 µM; in assay [6] it was 9.92 µM; in assay [7], more than 100 µM; in assay [8], 40.6 µM. Also, the values for the TGI in assay [9] and in assay [10] were 15.6 µM and 9.64 µM, respectively.
For the compound `CC(C)C(=O)CC(c1ccc(Cl)cc1)N1N=C(C(C)C)CC1c1ccc(Cl)cc1` (centres undefined), the total growth inhibition concentration (TGI) in [1] was more than 94.9 µM; in assay [2], 76.8 µM; in assay [5], more than 100 µM; in assay [6], more than 100 µM; in [7], more than 100 µM; in assay [8] it was more than 100 µM. The values for the total growth inhibition concentration (TGI) in [9] and in assay [10] were more than 100 µM and 49.5 µM, respectively. Further, the GI50 in assay [9] is 53.3 µM.
`CC(C)CC(=O)NC(C(=O)NC(C(=O)NC(CC(C)C)C(O)CC(=O)NC(C)C(=O)NC(CC(C)C)C(O)CC(=O)O)C(C)C)C(C)C` (centres undefined): the TGI in assay [1], in [3], in [4], in assay [5], in [6] and in assay [7] was more than 100 µM each time. Moreover, the total growth inhibition concentration (TGI) in [8], in assay [9] and in assay [10] was more than 100 µM throughout.
On to `CC(=O)O[C@@H]1C(=O)N(c2ccccc2)[C@@H]1c1cc2ccccc2c2ccccc12`, for which the TGI is 36.8 µM in assay [1]; 58.2 µM in [2]; more than 100 µM in [3]; more than 100 µM in assay [4]; 59.4 µM in assay [5]; more than 100 µM in assay [8]. Besides, the concentration for total growth inhibition (TGI) in assay [9] and in assay [10] was more than 100 µM each time.
Turning to `N#CCCN(CCC#N)c1ccc(/C=C(\NC(=O)c2cc([N+](=O)[O-])ccc2Cl)C(=O)Nc2ccccc2)cc1`, the TGI in [1], in assay [4], in [5], in [8] and in assay [9] was more than 100 µM throughout.
On to `Cn1ccc(C(=O)NCCN(CCNC(=O)c2ccn(C)c(=O)c2O)CCNC(=O)c2ccn(C)c(=O)c2O)c(O)c1=O`, for which the concentration for total growth inhibition (TGI) in [1], in [2], in assay [3], in assay [4], in [5] and in assay [6] was more than 100 µM throughout. The TGI in [7], in [8], in [9] and in assay [10] was more than 100 µM each time.
Consider `CCCn1cc2c(SC)nc(SC)nc2n1`, for which the concentration for total growth inhibition (TGI) in [1], in [2], in assay [4], in assay [5], in [6] and in assay [7] was more than 100 µM in each case. Further, the TGI in assay [8], in [9] and in assay [10] was more than 100 µM each time.
For `O=C(O)CCc1nc2ccccc2[nH]1`, the TGI in assay [1], in assay [2], in assay [3], in [4], in [5] and in [6] was more than 100 µM throughout. Moreover, the TGI in assay [7], in assay [8], in assay [9] and in assay [10] was more than 100 µM in each case.
In the case of `CCOC(=O)C(Cc1cn(C(C)=O)c2ccccc12)P(=O)(OCC)OCC` (centres undefined), the TGI in assay [1], in assay [3], in [4], in assay [5], in [6] and in assay [7] was more than 100 µM throughout. Moreover, the total growth inhibition concentration (TGI) in assay [8], in assay [9] and in [10] was more than 100 µM each time.
As to `O=C(O)c1cc(=O)c2c(OCC(O)COc3cccc4oc(C(=O)O)cc(=O)c34)cccc2o1`, the total growth inhibition concentration (TGI) was more than 100 µM in [1]; more than 100 µM in [2]; more than 100 µM in [3]; more than 100 µM in assay [4]; 99.2 µM in [5]; more than 100 µM in assay [6]. In addition, the total growth inhibition concentration (TGI) in assay [7], in assay [8], in [9] and in [10] was more than 100 µM throughout.
For `Cn1ncc2c(Nc3cccc(Cl)c3)nc(Nc3cccc(Cl)c3)nc21`, the TGI was 30.8 µM in [1]; 44.9 µM in assay [2]; 37.3 µM in assay [3]; 38.8 µM in assay [4]; more than 51.6 µM in assay [5]; 31.1 µM in assay [6]. Further, the concentration for total growth inhibition (TGI) was more than 58.2 µM in [7], 27.9 µM in assay [8], 52.1 µM in [9] and 25.9 µM in assay [10].
As to `COc1ccc(C(O)(c2ccccc2)c2nccc3ccccc23)cc1` (centres undefined), the TGI in assay [1] was more than 100 µM; in [2], more than 100 µM; in assay [3] it was more than 100 µM; in assay [4], more than 100 µM; in assay [5], 12.7 µM; in assay [8], more than 100 µM. The TGI in assay [9] and in [10] was more than 100 µM throughout.
With `c1ccc(C(NC2=NCCO2)c2ccccc2)cc1`, the TGI in assay [1], in assay [2], in [3], in assay [4], in [5] and in assay [6] was more than 10 µM throughout. In addition, the concentration for total growth inhibition (TGI) in [7], in [8] and in assay [9] was more than 10 µM in each case.
For the compound `C/C(=N\NC(=S)N(C)C)c1nc2ncccc2[nH]1`, the TGI in assay [1] was 3.75 µM; in assay [2] it was 1.32 µM; in assay [3], 12.6 µM; in [4] it was more than 100 µM; in assay [5], 1.87 µM; in assay [6], more than 100 µM. Moreover, the concentration for total growth inhibition (TGI) was more than 100 µM in assay [7], more than 100 µM in assay [8], more than 100 µM in assay [9] and 64.5 µM in assay [10].
`NNC(=O)CCSc1ccccc1`: the total growth inhibition concentration (TGI) in assay [1], in assay [2], in assay [3], in assay [4], in assay [5] and in assay [6] was more than 100 µM in each case. For the same compound, the TGI in assay [7], in [8], in assay [9] and in [10] was more than 100 µM in each case.
As for `OCCCNc1ncnc2[nH]ncc12`, the concentration for total growth inhibition (TGI) in assay [1], in assay [2], in assay [3], in assay [4], in assay [5] and in [6] was more than 100 µM throughout. For the same compound, the TGI in assay [7], in assay [8], in [9] and in assay [10] was more than 100 µM in each case.

For orientation: GI50 means the concentration giving 50% growth inhibition. For orientation: TGI means the concentration at which net growth stops. A lower TGI goes with more potent growth arrest.
